Measured values as given in PubChem BioAssay AID1963850 (Molecular Pharmacology Branch, DTP, NCI, 2024).

Test system: 192522-019-R-J2-PDC complex tumor spheroid viability
Assay: Anticancer human tumor 192522-019-R-J2-PDC patient-derived colon adenocarcinoma cell line growth inhibition [POLQ]
Settings: for IC50: curve of first compound; for viability, T/C: stronger effect = lower value
Summary of the method: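 Three-cell-type spheroids modelling solid tumor plus stroma served as the readout system; POL inhibitors were tested individually and in combination, concentration ranges set by clinical Cmax where known.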

[1] = second compound 0.0316 µM, first compound 0.0316 µM
[2] = second compound 0.0316 µM, first compound 0.1 µM
[3] = second compound 0.0316 µM, first compound 0.316 µM
[4] = second compound 0.0316 µM, first compound 1 µM
[5] = second compound 0.0316 µM, first compound 3.16 µM
[6] = second compound 0.0316 µM, first compound 10 µM
[7] = second compound 0.1 µM, first compound 0.0316 µM
[8] = second compound 0.1 µM, first compound 0.1 µM
[9] = second compound 0.1 µM, first compound 0.316 µM
[10] = second compound 0.1 µM, first compound 1 µM
[11] = second compound 0.1 µM, first compound 3.16 µM
[12] = second compound 0.1 µM, first compound 10 µM
[13] = second compound 0.316 µM, first compound 0.0316 µM
[14] = second compound 0.316 µM, first compound 0.1 µM
[15] = second compound 0.316 µM, first compound 0.316 µM
[16] = second compound 0.316 µM, first compound 1 µM
[17] = second compound 0.316 µM, first compound 3.16 µM
[18] = second compound 0.316 µM, first compound 10 µM
[19] = second compound 1 µM, first compound 0.0316 µM
[20] = second compound 1 µM, first compound 0.1 µM
[21] = second compound 1 µM, first compound 0.316 µM
[22] = second compound 1 µM, first compound 1 µM
[23] = second compound 1 µM, first compound 3.16 µM
[24] = second compound 1 µM, first compound 10 µM
[25] = second compound 3.16 µM, first compound 0.0316 µM
[26] = second compound 3.16 µM, first compound 0.1 µM
[27] = second compound 3.16 µM, first compound 0.316 µM
[28] = second compound 3.16 µM, first compound 1 µM
[29] = second compound 3.16 µM, first compound 3.16 µM
[30] = second compound 3.16 µM, first compound 10 µM
[31] = second compound 10 µM, first compound 0.0316 µM
[32] = second compound 10 µM, first compound 0.1 µM
[33] = second compound 10 µM, first compound 0.316 µM
[34] = second compound 10 µM, first compound 1 µM
[35] = second compound 10 µM, first compound 3.16 µM
[36] = second compound 10 µM, first compound 10 µM
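Note: spheroids exposed to drugs for seven days before reading.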
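Throughout, for viability, T/C: 100% = DMSO vehicle control viability in luminescence.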

CCc1cc2c(N3CCc4c(cc(Cn5ccnc5)cc4-c4cn(C)nc4C(F)(F)F)C3=O)cc(C)nc2c(OC)n1 + Cc1cccc(N(C)C(=O)C2C(O)CCN2c2nc(C)cc(C(F)(F)F)c2C#N)c1
IC50 (second compound 0.0316 µM): > 10 µM
IC50 (second compound 0.1 µM): > 10 µM
IC50 (second compound 0.316 µM): > 10 µM
IC50 (second compound 1 µM): > 10 µM
IC50 (second compound 3.16 µM): > 10 µM
IC50 (second compound 10 µM): > 10 µM
viability, T/C [1]: 116%
viability, T/C [2]: 91.1%
viability, T/C [3]: 83.4%
viability, T/C [4]: 87.9%
viability, T/C [5]: 72.2%
viability, T/C [6]: 68.1%
viability, T/C [7]: 99.3%
viability, T/C [8]: 99.4%
viability, T/C [9]: 88.1%
viability, T/C [10]: 78.5%
viability, T/C [11]: 75.8%
viability, T/C [12]: 69.6%
viability, T/C [13]: 112%
viability, T/C [14]: 99.1%
viability, T/C [15]: 85.4%
viability, T/C [16]: 79.4%
viability, T/C [17]: 82.7%
viability, T/C [18]: 72.7%
viability, T/C [19]: 102%
viability, T/C [20]: 94.9%
viability, T/C [21]: 84.2%
viability, T/C [22]: 84.6%
viability, T/C [23]: 78.3%
viability, T/C [24]: 72.6%
viability, T/C [25]: 107%
viability, T/C [26]: 98.4%
viability, T/C [27]: 101%
viability, T/C [28]: 79.8%
viability, T/C [29]: 82.5%
viability, T/C [30]: 73.9%
viability, T/C [31]: 110%
viability, T/C [32]: 103%
viability, T/C [33]: 93.9%
viability, T/C [34]: 90.1%
viability, T/C [35]: 86.7%
viability, T/C [36]: 79.3%

CCc1cc2c(N3CCc4c(cc(Cn5ccnc5)cc4-c4cn(C)nc4C(F)(F)F)C3=O)ccnc2c(OC)n1 + Cc1cccc(N(C)C(=O)C2C(O)CCN2c2nc(C)cc(C(F)(F)F)c2C#N)c1
IC50 (second compound 0.0316 µM): > 10 µM
IC50 (second compound 0.1 µM): > 10 µM
IC50 (second compound 0.316 µM): > 10 µM
IC50 (second compound 1 µM): > 10 µM
IC50 (second compound 3.16 µM): > 10 µM
IC50 (second compound 10 µM): > 10 µM
viability, T/C [1]: 107%
viability, T/C [2]: 93.3%
viability, T/C [3]: 93.9%
viability, T/C [4]: 78.7%
viability, T/C [5]: 82.3%
viability, T/C [6]: 72.7%
viability, T/C [7]: 99.6%
viability, T/C [8]: 90.7%
viability, T/C [9]: 85.4%
viability, T/C [10]: 93%
viability, T/C [11]: 70.7%
viability, T/C [12]: 63.7%
viability, T/C [13]: 108%
viability, T/C [14]: 92.8%
viability, T/C [15]: 89.1%
viability, T/C [16]: 88.5%
viability, T/C [17]: 85.2%
viability, T/C [18]: 72.9%
viability, T/C [19]: 108%
viability, T/C [20]: 95.9%
viability, T/C [21]: 94.6%
viability, T/C [22]: 90.1%
viability, T/C [23]: 90.2%
viability, T/C [24]: 85.3%
viability, T/C [25]: 105%
viability, T/C [26]: 98%
viability, T/C [27]: 96.8%
viability, T/C [28]: 91.2%
viability, T/C [29]: 91.3%
viability, T/C [30]: 82.3%
viability, T/C [31]: 104%
viability, T/C [32]: 98.9%
viability, T/C [33]: 99.2%
viability, T/C [34]: 92.4%
viability, T/C [35]: 88%
viability, T/C [36]: 88.7%

O=C(Nc1ccc(O)c(NS(=O)(=O)c2ccc(F)cc2)c1)c1ccc(-c2ccccc2)cc1 + Cc1cccc(N(C)C(=O)C2C(O)CCN2c2nc(C)cc(C(F)(F)F)c2C#N)c1
IC50 (second compound 0.0316 µM): > 10 µM
IC50 (second compound 0.1 µM): > 10 µM
IC50 (second compound 0.316 µM): > 10 µM
IC50 (second compound 1 µM): > 10 µM
IC50 (second compound 3.16 µM): > 10 µM
IC50 (second compound 10 µM): > 10 µM
viability, T/C [1]: 94.8%
viability, T/C [2]: 97.5%
viability, T/C [3]: 98.2%
viability, T/C [4]: 96.3%
viability, T/C [5]: 106%
viability, T/C [6]: 109%
viability, T/C [7]: 101%
viability, T/C [8]: 98.5%
viability, T/C [9]: 99.7%
viability, T/C [10]: 90.4%
viability, T/C [11]: 101%
viability, T/C [12]: 94.8%
viability, T/C [13]: 96.9%
viability, T/C [14]: 96.4%
viability, T/C [15]: 93.5%
viability, T/C [16]: 101%
viability, T/C [17]: 103%
viability, T/C [18]: 101%
viability, T/C [19]: 113%
viability, T/C [20]: 106%
viability, T/C [21]: 101%
viability, T/C [22]: 102%
viability, T/C [23]: 98.9%
viability, T/C [24]: 103%
viability, T/C [25]: 103%
viability, T/C [26]: 104%
viability, T/C [27]: 106%
viability, T/C [28]: 100%
viability, T/C [29]: 108%
viability, T/C [30]: 105%
viability, T/C [31]: 114%
viability, T/C [32]: 100%
viability, T/C [33]: 106%
viability, T/C [34]: 97.9%
viability, T/C [35]: 99.8%
viability, T/C [36]: 98.5%

COc1cccc2c1C(=O)c1c(O)c3c(c(O)c1C2=O)CC(O)(C(=O)CO)CC3OC1CC(N)C(O)C(C)O1 (stereo not drawn) + Nc1ccc(C#CCN(C(=O)Cc2ncc(C(F)(F)F)cc2C(F)(F)F)c2ccc(F)cc2)nn1
IC50 (second compound 0.0316 µM): > 10 µM
IC50 (second compound 0.1 µM): > 10 µM
IC50 (second compound 0.316 µM): > 10 µM
IC50 (second compound 1 µM): > 10 µM
IC50 (second compound 3.16 µM): > 10 µM
IC50 (second compound 10 µM): > 10 µM
viability, T/C [1]: 100%
viability, T/C [2]: 85%
viability, T/C [3]: 79.4%
viability, T/C [4]: 75.7%
viability, T/C [5]: 74%
viability, T/C [6]: 58.9%
viability, T/C [7]: 108%
viability, T/C [8]: 80.4%
viability, T/C [9]: 81.6%
viability, T/C [10]: 79.9%
viability, T/C [11]: 68.4%
viability, T/C [12]: 62.4%
viability, T/C [13]: 100%
viability, T/C [14]: 89%
viability, T/C [15]: 80.1%
viability, T/C [16]: 81.5%
viability, T/C [17]: 73.5%
viability, T/C [18]: 62.7%
viability, T/C [19]: 88.6%
viability, T/C [20]: 81.9%
viability, T/C [21]: 81.2%
viability, T/C [22]: 71.2%
viability, T/C [23]: 67.8%
viability, T/C [24]: 58%
viability, T/C [25]: 96.7%
viability, T/C [26]: 85%
viability, T/C [27]: 87.9%
viability, T/C [28]: 75.4%
viability, T/C [29]: 69.2%
viability, T/C [30]: 58.1%
viability, T/C [31]: 92.4%
viability, T/C [32]: 81.2%
viability, T/C [33]: 94.7%
viability, T/C [34]: 71.5%
viability, T/C [35]: 60.4%
viability, T/C [36]: 49.1%
